Assay results reported in patent US11208377B2, “3,4-disubstituted 3-cyclobutene-1,2-diones and use thereof” (ALLERGAN, INC., priority 2017, dated 2021).

Molecular target: human CCR6 (Homo sapiens (Human), UniProt P51684)
Test: Calcium activity assay on the FLIPR Tetra in HEK-Gqi5 cells stably expressing human CCR6 (MIP3α as positive control agonist)
Format: cell-based
Protocol: HEK-Gqi5 cells stably expressing human CCR6 were cultured in DMEM high glucose, 10% FBS, 1% PSA, 400 ug/ml geneticin and 50 ug/ml hygromycin. Appropriate positive control chemokine (MIP3α) was used as the positive control agonist for screening compound-induced calcium activity assayed on the FLIPR^Tetra. The drug plates were prepared in 384-well microplates using the EP3 and the MultiPROBE robotic liquid handling systems. Compounds disclosed herein were tested for CCR6 activity.

Sequence of human CCR6 (P51684 whole entry): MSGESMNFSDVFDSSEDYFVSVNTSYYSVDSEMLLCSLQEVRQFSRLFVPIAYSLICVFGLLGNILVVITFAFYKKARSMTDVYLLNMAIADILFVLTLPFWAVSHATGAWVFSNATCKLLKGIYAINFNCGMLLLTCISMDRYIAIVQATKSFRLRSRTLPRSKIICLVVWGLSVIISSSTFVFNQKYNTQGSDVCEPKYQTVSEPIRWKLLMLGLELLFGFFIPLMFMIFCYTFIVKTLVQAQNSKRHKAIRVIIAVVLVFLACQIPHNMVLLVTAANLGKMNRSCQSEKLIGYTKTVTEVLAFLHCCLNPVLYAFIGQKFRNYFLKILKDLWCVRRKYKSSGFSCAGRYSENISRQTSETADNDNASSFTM

| CCR6 % Antagonism | IC50 | Compound |
| --- | --- | --- |
| 98% | 31 nM | CN1CCN(S(=O)(=O)c2c(Cl)ccc(Nc3c(NC4c5ccoc5CCC4(C)C)c(=O)c3=O)c2O)CC1 (stereo not shown) [Compound 49, 3-((4-chloro-2-hydroxy-3-((4-methylpiperazin-1-yl)sulfonyl)phenyl)amino)-4-((5,5-dimethyl-4,5,6,7-tetrahydrobenzofuran-4-yl)amino)cyclobut-3-ene-1,2-dione] |
| 95% | 46 nM | CCC(C)(Nc1c(Nc2ccc(Cl)c(C(=O)N(C)C)c2O)c(=O)c1=O)c1ccccc1 (stereo not shown) [Compound 72, 6-chloro-3-((3,4-dioxo-2-((2-phenylbutan-2-yl)amino)cyclobut-1-en-1-yl)amino)-2-hydroxy-N,N-dimethylbenzamide] |
